Test results published in PubChem BioAssay AID1963974 (Molecular Pharmacology Branch, DTP, NCI, 2024).

Test system: 648629-189-R-J1-PDC spheroids with HUVEC/MSC, viability
Experiment: Anticancer human tumor 648629-189-R-J1-PDC patient-derived bladder carcinoma cell line growth inhibition [PI3K]
Settings: for IC50: curve of first compound; for viability, T/C: stronger effect = lower value
Procedure, shortened: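 High-throughput combination screen: PI3K inhibitors crossed with targeted small molecules on complex spheroids of tumor cells, HUVEC and MSCs at 37 degrees C, 5% CO2. Top concentration was at or near clinical Cmax (otherwise 10 microM), with half-log decrements.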

[1] = second compound 0.0316 µM, first compound 0.0316 µM
[2] = second compound 0.0316 µM, first compound 0.1 µM
[3] = second compound 0.0316 µM, first compound 0.316 µM
[4] = second compound 0.0316 µM, first compound 1 µM
[5] = second compound 0.0316 µM, first compound 3.16 µM
[6] = second compound 0.0316 µM, first compound 10 µM
[7] = second compound 0.1 µM, first compound 0.0316 µM
[8] = second compound 0.1 µM, first compound 0.1 µM
[9] = second compound 0.1 µM, first compound 0.316 µM
[10] = second compound 0.1 µM, first compound 1 µM
[11] = second compound 0.1 µM, first compound 3.16 µM
[12] = second compound 0.1 µM, first compound 10 µM
[13] = second compound 0.316 µM, first compound 0.0316 µM
[14] = second compound 0.316 µM, first compound 0.1 µM
[15] = second compound 0.316 µM, first compound 0.316 µM
[16] = second compound 0.316 µM, first compound 1 µM
[17] = second compound 0.316 µM, first compound 3.16 µM
[18] = second compound 0.316 µM, first compound 10 µM
[19] = second compound 1 µM, first compound 0.0316 µM
[20] = second compound 1 µM, first compound 0.1 µM
[21] = second compound 1 µM, first compound 0.316 µM
[22] = second compound 1 µM, first compound 1 µM
[23] = second compound 1 µM, first compound 3.16 µM
[24] = second compound 1 µM, first compound 10 µM
[25] = second compound 3.16 µM, first compound 0.0316 µM
[26] = second compound 3.16 µM, first compound 0.1 µM
[27] = second compound 3.16 µM, first compound 0.316 µM
[28] = second compound 3.16 µM, first compound 1 µM
[29] = second compound 3.16 µM, first compound 3.16 µM
[30] = second compound 3.16 µM, first compound 10 µM
[31] = second compound 10 µM, first compound 0.0316 µM
[32] = second compound 10 µM, first compound 0.1 µM
[33] = second compound 10 µM, first compound 0.316 µM
[34] = second compound 10 µM, first compound 1 µM
[35] = second compound 10 µM, first compound 3.16 µM
[36] = second compound 10 µM, first compound 10 µM
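Also: spheroids exposed to agents for seven days before reading.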
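For viability, T/C in this document: percent of vehicle control luminescence where 100% = DMSO treated spheroids.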

C[C@@H](NC(=O)c1ncnc(N)c1Cl)c1ncc(C(=O)Nc2cc(C(F)(F)F)c(Cl)cn2)s1 + Cc1nc(NC(=O)N2CCCC2C(N)=O)sc1-c1ccnc(C(C)(C)C(F)(F)F)c1
IC50 (second compound 0.0316 µM): > 10000 nM
IC50 (second compound 0.1 µM): > 10000 nM
IC50 (second compound 0.316 µM): > 10000 nM
IC50 (second compound 1 µM): > 10000 nM
IC50 (second compound 3.16 µM): > 10000 nM
IC50 (second compound 10 µM): < 31.6 nM
viability, T/C [1]: 101%
viability, T/C [2]: 93.8%
viability, T/C [3]: 98.8%
viability, T/C [4]: 116%
viability, T/C [5]: 107%
viability, T/C [6]: 106%
viability, T/C [7]: 107%
viability, T/C [8]: 92.4%
viability, T/C [9]: 95.4%
viability, T/C [10]: 108%
viability, T/C [11]: 120%
viability, T/C [12]: 118%
viability, T/C [13]: 81.2%
viability, T/C [14]: 101%
viability, T/C [15]: 83.4%
viability, T/C [16]: 93%
viability, T/C [17]: 90.9%
viability, T/C [18]: 94.5%
viability, T/C [19]: 74%
viability, T/C [20]: 73.2%
viability, T/C [21]: 78%
viability, T/C [22]: 77.9%
viability, T/C [23]: 88.7%
viability, T/C [24]: 82.6%
viability, T/C [25]: 53.3%
viability, T/C [26]: 56.6%
viability, T/C [27]: 59%
viability, T/C [28]: 55%
viability, T/C [29]: 66%
viability, T/C [30]: 54.7%
viability, T/C [31]: 40.2%
viability, T/C [32]: 35.4%
viability, T/C [33]: 39.2%
viability, T/C [34]: 36%
viability, T/C [35]: 36.6%
viability, T/C [36]: 42.7%

Cn1ncc(Cl)c1-c1cc(C(=O)NC(CN)Cc2cccc(F)c2)sc1Cl (stereo unspecified) + Cc1nc(NC(=O)N2CCCC2C(N)=O)sc1-c1ccnc(C(C)(C)C(F)(F)F)c1
IC50 (second compound 0.0316 µM): 510 nM
IC50 (second compound 0.1 µM): 405 nM
IC50 (second compound 0.316 µM): 312 nM
IC50 (second compound 1 µM): 218 nM
IC50 (second compound 3.16 µM): 75.9 nM
IC50 (second compound 10 µM): < 31.6 nM
viability, T/C [1]: 105%
viability, T/C [2]: 97%
viability, T/C [3]: 55.6%
viability, T/C [4]: 34.7%
viability, T/C [5]: 17.9%
viability, T/C [6]: 2.36%
viability, T/C [7]: 90.8%
viability, T/C [8]: 76.8%
viability, T/C [9]: 56.9%
viability, T/C [10]: 27.6%
viability, T/C [11]: 17.5%
viability, T/C [12]: 1.87%
viability, T/C [13]: 89.6%
viability, T/C [14]: 73.8%
viability, T/C [15]: 48.2%
viability, T/C [16]: 28%
viability, T/C [17]: 15.1%
viability, T/C [18]: 1.73%
viability, T/C [19]: 72.8%
viability, T/C [20]: 66.6%
viability, T/C [21]: 41%
viability, T/C [22]: 23.3%
viability, T/C [23]: 13.6%
viability, T/C [24]: 1.42%
viability, T/C [25]: 55.2%
viability, T/C [26]: 50.3%
viability, T/C [27]: 34.4%
viability, T/C [28]: 20.5%
viability, T/C [29]: 12.2%
viability, T/C [30]: 1.25%
viability, T/C [31]: 36.9%
viability, T/C [32]: 31.7%
viability, T/C [33]: 20.4%
viability, T/C [34]: 13.5%
viability, T/C [35]: 7.71%
viability, T/C [36]: 0.35%

Cn1ncnc1[C@H]1c2n[nH]c(=O)c3cc(F)cc(c23)N[C@@H]1c1ccc(F)cc1 + Cc1nc(NC(=O)N2CCCC2C(N)=O)sc1-c1ccnc(C(C)(C)C(F)(F)F)c1
IC50 (second compound 0.0316 µM): > 100 nM
IC50 (second compound 0.1 µM): > 100 nM
IC50 (second compound 0.316 µM): > 100 nM
IC50 (second compound 1 µM): 89.4 nM
IC50 (second compound 3.16 µM): 15.9 nM
IC50 (second compound 10 µM): < 0.316 nM
viability, T/C (second compound 0.0316 µM, first compound 0.000316 µM): 117%
viability, T/C (second compound 0.0316 µM, first compound 0.001 µM): 101%
viability, T/C (second compound 0.0316 µM, first compound 0.00316 µM): 91.2%
viability, T/C (second compound 0.0316 µM, first compound 0.01 µM): 82.1%
viability, T/C [1]: 83.4%
viability, T/C [2]: 64.7%
viability, T/C (second compound 0.1 µM, first compound 0.000316 µM): 115%
viability, T/C (second compound 0.1 µM, first compound 0.001 µM): 96.9%
viability, T/C (second compound 0.1 µM, first compound 0.00316 µM): 93.5%
viability, T/C (second compound 0.1 µM, first compound 0.01 µM): 77.8%
viability, T/C [7]: 80.4%
viability, T/C [8]: 58.6%
viability, T/C (second compound 0.316 µM, first compound 0.000316 µM): 85.8%
viability, T/C (second compound 0.316 µM, first compound 0.001 µM): 94.5%
viability, T/C (second compound 0.316 µM, first compound 0.00316 µM): 90.8%
viability, T/C (second compound 0.316 µM, first compound 0.01 µM): 78.3%
viability, T/C [13]: 68.2%
viability, T/C [14]: 52.7%
viability, T/C (second compound 1 µM, first compound 0.000316 µM): 73.8%
viability, T/C (second compound 1 µM, first compound 0.001 µM): 74.8%
viability, T/C (second compound 1 µM, first compound 0.00316 µM): 70.6%
viability, T/C (second compound 1 µM, first compound 0.01 µM): 74.9%
viability, T/C [19]: 60.8%
viability, T/C [20]: 48.8%
viability, T/C (second compound 3.16 µM, first compound 0.000316 µM): 64.4%
viability, T/C (second compound 3.16 µM, first compound 0.001 µM): 57.6%
viability, T/C (second compound 3.16 µM, first compound 0.00316 µM): 58.4%
viability, T/C (second compound 3.16 µM, first compound 0.01 µM): 48.7%
viability, T/C [25]: 49.7%
viability, T/C [26]: 43.5%
viability, T/C (second compound 10 µM, first compound 0.000316 µM): 40.6%
viability, T/C (second compound 10 µM, first compound 0.001 µM): 36.1%
viability, T/C (second compound 10 µM, first compound 0.00316 µM): 39.7%
viability, T/C (second compound 10 µM, first compound 0.01 µM): 35%
viability, T/C [31]: 29.7%
viability, T/C [32]: 28.5%
